Reference: ChEMBL document CHEMBL1201862, “PubChem BioAssay data set” (2004)
Active and inactive are the calls of the source.

Experiments:
[1] = target: Receptor-type tyrosine-protein kinase FLT3 (Homo sapiens, UniProt P36888); format: functional;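 also: FLT3 was tested as one member of a kinome-wide kinase panel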
[2] = target: Macrophage colony-stimulating factor 1 receptor (Homo sapiens, UniProt P07333); format: functional;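 also: value comes from the Navigating the Kinome screening panel, CSF1R member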
Chain of Macrophage colony-stimulating factor 1 receptor (P07333 whole entry): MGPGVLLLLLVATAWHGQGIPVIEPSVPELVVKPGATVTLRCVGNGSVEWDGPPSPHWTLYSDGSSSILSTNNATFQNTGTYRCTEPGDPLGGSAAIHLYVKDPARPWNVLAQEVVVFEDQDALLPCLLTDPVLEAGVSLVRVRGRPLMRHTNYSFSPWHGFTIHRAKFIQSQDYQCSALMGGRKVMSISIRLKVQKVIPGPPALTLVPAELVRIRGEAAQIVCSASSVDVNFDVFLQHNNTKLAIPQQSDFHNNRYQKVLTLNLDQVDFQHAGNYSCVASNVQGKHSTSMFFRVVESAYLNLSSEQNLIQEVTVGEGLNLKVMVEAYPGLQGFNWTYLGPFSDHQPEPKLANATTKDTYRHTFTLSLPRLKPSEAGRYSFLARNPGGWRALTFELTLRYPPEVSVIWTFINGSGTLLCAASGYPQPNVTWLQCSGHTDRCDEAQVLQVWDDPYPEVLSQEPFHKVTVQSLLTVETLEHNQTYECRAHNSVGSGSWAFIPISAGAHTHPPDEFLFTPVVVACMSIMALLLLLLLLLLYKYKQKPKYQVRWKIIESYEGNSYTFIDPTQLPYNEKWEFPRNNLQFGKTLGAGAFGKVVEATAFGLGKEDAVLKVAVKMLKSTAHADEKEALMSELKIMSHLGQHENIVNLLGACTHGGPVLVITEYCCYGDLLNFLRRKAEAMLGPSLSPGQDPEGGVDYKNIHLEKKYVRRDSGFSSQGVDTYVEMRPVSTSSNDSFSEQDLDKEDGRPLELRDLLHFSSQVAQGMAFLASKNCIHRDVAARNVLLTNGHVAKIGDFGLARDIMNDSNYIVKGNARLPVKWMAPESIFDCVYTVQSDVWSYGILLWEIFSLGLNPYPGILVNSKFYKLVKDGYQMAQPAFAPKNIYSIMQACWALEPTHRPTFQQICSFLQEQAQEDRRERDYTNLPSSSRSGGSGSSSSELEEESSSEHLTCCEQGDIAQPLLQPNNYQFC

[3] = target: Dual specificity protein kinase CLK4 (Homo sapiens, UniProt Q9HAZ1); format: functional
Chain of Dual specificity protein kinase CLK4 (Q9HAZ1 whole entry, the tested form may be a part): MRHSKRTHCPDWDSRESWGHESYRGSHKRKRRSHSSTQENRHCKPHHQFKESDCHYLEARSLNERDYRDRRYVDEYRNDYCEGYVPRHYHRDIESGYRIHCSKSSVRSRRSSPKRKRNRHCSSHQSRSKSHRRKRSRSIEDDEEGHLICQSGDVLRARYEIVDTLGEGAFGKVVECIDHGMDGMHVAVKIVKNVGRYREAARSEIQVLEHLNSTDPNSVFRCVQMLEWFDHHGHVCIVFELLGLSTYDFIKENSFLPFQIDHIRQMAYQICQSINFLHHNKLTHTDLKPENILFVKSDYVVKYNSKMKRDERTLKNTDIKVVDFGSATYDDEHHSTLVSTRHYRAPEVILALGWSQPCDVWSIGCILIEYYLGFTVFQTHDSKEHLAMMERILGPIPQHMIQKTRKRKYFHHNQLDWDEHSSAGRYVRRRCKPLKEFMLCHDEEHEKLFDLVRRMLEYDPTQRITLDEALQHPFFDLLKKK

[4] = luciferase reporter signal reduction – luminescence, H4-C neuroglioblastoma cells, dose response (AID 2458); format: functional, cell-based;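 also: H4 neuroglioblastoma cells stably carrying a luciferase reporter gene fusion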
[5] = HIV-1 AD8 envelope cell-cell fusion blockers – cherry-pick, dose response (AID 652062); format: functional, cell-based;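 also: luciferase signal from cell-cell fusion driven by HIV-1 clade B AD8 Env; potency is for inhibitors of fusion seen as a drop in luminescence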
[6] = Luminescence Cell-Based Dose Response HTS to Identify Inhibitors of 5'UTR Stem-Loop Driven Prion Protein mRNA Translation in H4 Neuroglioblastoma Cells. [Related pubchem assays: 1827 (Project Summary), 1813 (Primary HTS)]; format: functional
[7] = viability loss in CEM21 cells – cell-based, CellTiter-Glo luminescence, cherry-picked, cytotoxicity control for viral fusion inhibitor project, dose response (AID 652042); format: functional;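 also: potency for signal decrease meaning cytotoxicity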
Hexokinase HKDC1 = target: T1, Hexokinase HKDC1 (Homo sapiens, UniProt Q2TB90); experiment: activation of HKDC1 glucose phosphorylation – biochemical, W721R variant, dose response (AID 504730); format: functional
T1 sequence (Q2TB90 whole entry): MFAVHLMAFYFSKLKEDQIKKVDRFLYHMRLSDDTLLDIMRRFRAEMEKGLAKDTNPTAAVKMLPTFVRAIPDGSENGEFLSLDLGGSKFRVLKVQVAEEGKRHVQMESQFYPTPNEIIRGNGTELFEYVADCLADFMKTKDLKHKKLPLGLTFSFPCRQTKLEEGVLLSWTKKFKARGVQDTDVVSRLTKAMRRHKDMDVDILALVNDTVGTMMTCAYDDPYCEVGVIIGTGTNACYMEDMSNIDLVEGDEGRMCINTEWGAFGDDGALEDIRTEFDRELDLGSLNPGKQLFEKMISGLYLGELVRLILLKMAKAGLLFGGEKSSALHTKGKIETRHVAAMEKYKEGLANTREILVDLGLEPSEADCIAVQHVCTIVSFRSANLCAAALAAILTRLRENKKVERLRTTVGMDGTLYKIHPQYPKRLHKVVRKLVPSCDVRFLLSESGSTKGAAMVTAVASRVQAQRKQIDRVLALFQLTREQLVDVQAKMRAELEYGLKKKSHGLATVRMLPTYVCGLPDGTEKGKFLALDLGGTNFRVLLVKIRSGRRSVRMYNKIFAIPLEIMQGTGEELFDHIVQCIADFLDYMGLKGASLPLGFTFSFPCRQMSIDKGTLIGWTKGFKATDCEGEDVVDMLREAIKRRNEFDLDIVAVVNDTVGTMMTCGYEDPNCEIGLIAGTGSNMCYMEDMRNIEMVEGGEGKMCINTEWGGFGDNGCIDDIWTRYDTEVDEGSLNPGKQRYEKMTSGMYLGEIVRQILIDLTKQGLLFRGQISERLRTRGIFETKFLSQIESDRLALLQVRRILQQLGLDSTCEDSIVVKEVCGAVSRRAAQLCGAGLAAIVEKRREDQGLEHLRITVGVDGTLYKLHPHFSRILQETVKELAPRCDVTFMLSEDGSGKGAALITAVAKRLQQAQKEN

[8] = target: Intestinal-type alkaline phosphatase (Homo sapiens, UniProt P09923); experiment: human intestinal alkaline phosphatase activators, dose response, biochemical, luminescence, uHTS hits (AID 463120); format: functional
Chain of Intestinal-type alkaline phosphatase (P09923 whole entry): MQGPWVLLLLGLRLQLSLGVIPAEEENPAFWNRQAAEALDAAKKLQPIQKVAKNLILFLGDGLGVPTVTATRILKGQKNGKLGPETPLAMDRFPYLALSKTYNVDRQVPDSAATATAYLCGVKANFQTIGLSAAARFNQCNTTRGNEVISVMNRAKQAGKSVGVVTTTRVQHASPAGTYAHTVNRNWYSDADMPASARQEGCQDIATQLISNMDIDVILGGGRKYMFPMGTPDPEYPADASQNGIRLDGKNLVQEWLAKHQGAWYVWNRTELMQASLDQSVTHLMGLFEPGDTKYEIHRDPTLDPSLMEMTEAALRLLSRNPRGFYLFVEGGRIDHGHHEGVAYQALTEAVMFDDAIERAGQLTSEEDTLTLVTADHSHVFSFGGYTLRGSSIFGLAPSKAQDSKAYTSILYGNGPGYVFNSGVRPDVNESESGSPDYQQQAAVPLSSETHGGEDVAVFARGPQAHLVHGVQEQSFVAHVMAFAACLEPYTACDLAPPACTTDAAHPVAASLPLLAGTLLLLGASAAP

Insulin-degrading enzyme = target: T2, Insulin-degrading enzyme (Homo sapiens, UniProt P14735); experiment: cellular IDE activation of Abeta substrate cleavage – fluorescence polarization, HEK cells, dose response (AID 588439); format: functional, cell-based
T2 sequence (P14735 whole entry): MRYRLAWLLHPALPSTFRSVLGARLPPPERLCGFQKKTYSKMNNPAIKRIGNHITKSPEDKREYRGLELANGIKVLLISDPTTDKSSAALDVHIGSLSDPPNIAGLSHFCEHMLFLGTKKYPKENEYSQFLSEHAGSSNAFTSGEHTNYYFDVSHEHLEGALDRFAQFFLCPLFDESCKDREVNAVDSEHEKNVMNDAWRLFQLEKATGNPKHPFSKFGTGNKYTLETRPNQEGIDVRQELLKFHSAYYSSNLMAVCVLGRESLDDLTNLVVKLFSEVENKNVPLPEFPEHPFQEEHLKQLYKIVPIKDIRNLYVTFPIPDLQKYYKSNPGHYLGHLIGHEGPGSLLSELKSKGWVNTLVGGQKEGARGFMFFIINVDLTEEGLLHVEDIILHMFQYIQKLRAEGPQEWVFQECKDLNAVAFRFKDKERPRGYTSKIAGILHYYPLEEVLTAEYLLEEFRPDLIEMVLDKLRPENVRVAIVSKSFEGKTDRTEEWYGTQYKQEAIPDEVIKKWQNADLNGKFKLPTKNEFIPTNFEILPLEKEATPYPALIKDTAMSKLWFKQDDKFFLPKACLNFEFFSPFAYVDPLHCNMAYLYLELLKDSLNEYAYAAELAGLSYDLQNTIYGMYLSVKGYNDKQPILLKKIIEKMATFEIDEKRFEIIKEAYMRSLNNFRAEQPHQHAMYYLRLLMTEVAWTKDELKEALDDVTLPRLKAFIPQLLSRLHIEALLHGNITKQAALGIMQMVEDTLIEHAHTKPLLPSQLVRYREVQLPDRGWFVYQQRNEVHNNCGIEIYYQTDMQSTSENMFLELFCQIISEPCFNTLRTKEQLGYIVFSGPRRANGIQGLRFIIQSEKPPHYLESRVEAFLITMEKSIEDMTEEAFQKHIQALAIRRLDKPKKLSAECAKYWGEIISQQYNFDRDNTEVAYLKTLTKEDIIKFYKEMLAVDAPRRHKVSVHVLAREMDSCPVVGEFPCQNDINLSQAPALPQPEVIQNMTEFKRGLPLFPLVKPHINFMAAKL

HEK293 [9] = experiment: optical interference in Abeta FP readout, dose response, artefact control for IDE activator project, biochemical, fluorescence polarization (AID 588442); format: functional, cell-based; settings: Homo sapiens
HEK293 [10] = experiment: membrane integrity loss in HEK cells – cell-based, fluorescence, cytotoxicity control for IDE activator project, dose response (AID 588440); format: functional; settings: Homo sapiens;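 also: cytotoxicity by LDH release measuring loss of membrane integrity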
[11] = target: Serine/threonine-protein kinase Chk1 (Homo sapiens, UniProt O14757); format: functional;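 also: measured as one member of a kinome-wide kinase profiling panel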
Chain of Serine/threonine-protein kinase Chk1 (O14757 whole entry): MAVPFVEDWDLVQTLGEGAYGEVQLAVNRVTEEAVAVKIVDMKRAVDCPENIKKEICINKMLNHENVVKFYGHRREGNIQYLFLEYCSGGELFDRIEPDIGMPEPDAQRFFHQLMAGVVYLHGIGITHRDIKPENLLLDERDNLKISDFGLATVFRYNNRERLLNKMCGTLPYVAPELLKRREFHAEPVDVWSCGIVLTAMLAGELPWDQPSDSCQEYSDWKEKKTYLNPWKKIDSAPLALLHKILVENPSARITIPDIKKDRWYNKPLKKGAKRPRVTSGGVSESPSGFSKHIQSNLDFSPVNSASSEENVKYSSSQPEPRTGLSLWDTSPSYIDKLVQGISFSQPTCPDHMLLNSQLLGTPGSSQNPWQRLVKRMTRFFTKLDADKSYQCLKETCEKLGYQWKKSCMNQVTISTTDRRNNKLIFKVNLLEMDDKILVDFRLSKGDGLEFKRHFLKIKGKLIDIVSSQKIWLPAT

Focal adhesion kinase 1 = Focal adhesion kinase 1 (Homo sapiens, UniProt Q05397); format: functional;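 also: measured as one member of a kinome panel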
Chain of Focal adhesion kinase 1 (Q05397 whole entry): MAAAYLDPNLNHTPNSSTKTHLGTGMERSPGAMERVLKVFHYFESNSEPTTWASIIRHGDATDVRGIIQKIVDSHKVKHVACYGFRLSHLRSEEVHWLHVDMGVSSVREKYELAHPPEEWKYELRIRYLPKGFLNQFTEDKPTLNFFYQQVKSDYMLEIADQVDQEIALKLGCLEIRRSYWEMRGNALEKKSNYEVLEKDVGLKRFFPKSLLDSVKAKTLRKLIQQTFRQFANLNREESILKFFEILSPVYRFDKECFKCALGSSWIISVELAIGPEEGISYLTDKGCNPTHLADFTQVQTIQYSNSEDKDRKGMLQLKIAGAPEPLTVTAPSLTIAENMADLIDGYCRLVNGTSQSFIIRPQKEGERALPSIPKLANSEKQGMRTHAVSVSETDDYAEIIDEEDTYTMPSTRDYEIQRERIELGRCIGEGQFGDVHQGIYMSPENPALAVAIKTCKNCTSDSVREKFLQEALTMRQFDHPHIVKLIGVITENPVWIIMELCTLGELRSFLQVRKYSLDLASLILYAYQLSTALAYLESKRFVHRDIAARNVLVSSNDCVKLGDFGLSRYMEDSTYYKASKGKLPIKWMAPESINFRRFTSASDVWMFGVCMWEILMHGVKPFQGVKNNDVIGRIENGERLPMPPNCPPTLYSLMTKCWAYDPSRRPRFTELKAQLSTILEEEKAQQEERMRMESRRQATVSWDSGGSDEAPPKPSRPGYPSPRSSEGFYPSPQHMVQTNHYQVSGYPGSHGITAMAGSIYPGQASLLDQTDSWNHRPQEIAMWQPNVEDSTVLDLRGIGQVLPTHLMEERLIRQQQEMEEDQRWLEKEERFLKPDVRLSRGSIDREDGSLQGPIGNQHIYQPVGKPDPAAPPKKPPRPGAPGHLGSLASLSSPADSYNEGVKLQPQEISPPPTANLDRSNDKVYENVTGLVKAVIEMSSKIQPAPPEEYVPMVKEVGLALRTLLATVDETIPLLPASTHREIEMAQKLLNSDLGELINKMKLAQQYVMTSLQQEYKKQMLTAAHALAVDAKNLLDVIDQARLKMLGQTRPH

Chain of Receptor-type tyrosine-protein kinase FLT3 (P36888 whole entry): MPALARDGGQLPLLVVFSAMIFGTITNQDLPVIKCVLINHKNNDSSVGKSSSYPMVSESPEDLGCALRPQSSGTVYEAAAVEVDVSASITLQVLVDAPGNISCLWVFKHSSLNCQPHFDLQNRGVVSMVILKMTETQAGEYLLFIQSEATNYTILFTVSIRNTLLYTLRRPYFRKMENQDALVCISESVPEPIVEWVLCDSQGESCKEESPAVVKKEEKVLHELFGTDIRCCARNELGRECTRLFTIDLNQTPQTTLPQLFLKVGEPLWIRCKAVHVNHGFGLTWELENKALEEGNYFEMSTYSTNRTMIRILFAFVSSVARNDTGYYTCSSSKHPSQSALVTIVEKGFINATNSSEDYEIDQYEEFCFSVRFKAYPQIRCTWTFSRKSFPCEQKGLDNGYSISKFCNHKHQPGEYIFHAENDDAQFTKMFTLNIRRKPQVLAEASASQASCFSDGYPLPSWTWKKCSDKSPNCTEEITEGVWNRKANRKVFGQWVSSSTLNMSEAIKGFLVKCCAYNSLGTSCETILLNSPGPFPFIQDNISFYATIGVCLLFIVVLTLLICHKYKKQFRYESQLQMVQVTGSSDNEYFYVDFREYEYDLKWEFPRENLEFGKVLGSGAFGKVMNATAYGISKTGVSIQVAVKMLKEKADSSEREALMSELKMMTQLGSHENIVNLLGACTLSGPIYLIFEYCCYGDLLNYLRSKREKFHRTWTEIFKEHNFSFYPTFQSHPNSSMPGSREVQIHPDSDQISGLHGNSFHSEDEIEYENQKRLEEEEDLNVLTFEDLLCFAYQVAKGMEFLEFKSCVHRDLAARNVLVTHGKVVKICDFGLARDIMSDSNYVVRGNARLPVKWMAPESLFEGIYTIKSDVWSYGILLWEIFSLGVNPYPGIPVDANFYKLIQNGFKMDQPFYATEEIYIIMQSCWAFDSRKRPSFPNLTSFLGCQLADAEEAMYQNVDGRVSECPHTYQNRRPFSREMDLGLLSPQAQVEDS

O=C(Nc1cc(-c2c[nH]c3ncccc23)cc(Cl)n1)c1ccccc1
Ki [1]: > 2.51 µM (inactive) | Ki [2]: > 2.51 µM (inactive) | Ki [3]: 0.0251 µM (active)

CCN1C(=Cc2sc3ccccc3[n+]2C)C=Cc2cccc(C)c21
EC50 [4]: 3.14 µM (active) | AC50 [5]: 1.05 µM (active) | EC50 [6]: 6.43 µM (active) | AC50 [7]: 4.69 µM (active) | EC50 (Hexokinase HKDC1): > 80 µM (inactive)

O=C(N/N=C/c1c(O)ccc2ccccc12)c1[nH]ncc1Br
EC50 [8]: 7.56 µM (active)

CNC[C@H](Cc1ccccc1)NC[C@@H](Cc1cccc2ccccc12)NCCc1ccc(C)cc1
EC50 (Insulin-degrading enzyme): 7.52 µM (active) | EC50 (HEK293 [9]): > 54.7 µM (inactive) | IC50 (HEK293 [10]): 9.04 µM (active)

Nc1c(-c2ccc(NC(=O)Nc3cccc(C(F)(F)F)c3)cc2)cnc2c(-c3ccc4c(c3)OCO4)cnn12
Ki [1]: 0.0501 µM (active) | Ki [2]: 0.0631 µM (active) | Ki [3]: > 2.51 µM (inactive) | Ki [11]: > 3.16 µM (inactive) | Ki (Focal adhesion kinase 1): > 6.31 µM (inactive)
